Assay [1] concerns the target T1, human neurokinin 1 (NK1) receptor (Homo sapiens, UniProt P25103).
T1 construct: expressed in transfected cells; host or cells: Chinese hamster ovary (CHO) cells, membranes
The assay is described as follows: Neurokinin receptor binding assay, NK1 ([3H]-Substance P, CHO cell membranes). The following applies: competition with [3H]-Substance P, Cheng and Prusoff. As for the experimental part: (§1) Neurokinin Receptor Binding Assay(s)
(§2) Chinese Hamster ovary (CHO) cells transfected with the coding regions for the human neurokinin 1 (NK1) of the human neurokinin 2 (NK2) receptors are grown in Dulbecco's minimal essential medium supplemented with 10% fetal calf serum, 0.1 mM non-essential amino acids, 2 mM glutamine, 100 units/ml of penicillin and streptomycin, and 0.8 mg of G418/ml at 37° C. in a humidified atmosphere containing 5% CO2.
(§3) Cells are detached from T-175 flasks with a sterile solution containing 5 mM EDTA in phosphate buffered saline. Cells are harvested by centrifugation and washed in RPMI media at […] for 5 minutes. The pellet is resuspended in Tris-HCl(pH7.4) containing 1 uM phosphoramidon and 4 ug/ml of chymostatin at a cell density of 30×10^6 cells/ml. The suspension is then homogenized in a Brinkman Polytron (setting 5) for 30-45 seconds. The homogenate is centrifuged at 800×g for 5 min at 4° C. to collect unbroken cells and nuclei. The supernatant is centrifuged in a Sorvall RC5C at 19,000 rpm ([…]) for 30 min at 4° C. The pellet is resuspended, an aliquot is removed for a protein determination (BCA) and washed again. The resulting pellet is stored at -80° C.
(§4) Binding is initiated by the addition of 100 μl of membrane (10-20 μg) containing the human NK-1 or NK-2 receptor in a final volume of 200 μl. After 40 minutes at room temperature, the reaction is stopped by rapid filtration onto Whatman GF/C filters which have been presoaked in 0.3% polyethylenimine. Filters are washed 2 times with 3 ml of 50 mM Tris-HCl (pH7.4). Filters are added to 6 mls of Ready-Safe liquid scintillation cocktail and quantified by liquid scintillation spectrometry in a LKB 1219 RackBeta counter. Non-specific binding is determined by the addition of either 1 μM of CP-99994 (NK1) or 1 μM SR-48968 (NK2) (both synthesized by the chemistry department of Schering-Plough Research Institute).

The target of assay [2] is T2, human neurokinin 2 (NK2) receptor (Homo sapiens, UniProt P21452).
T2 construct: expressed in transfected cells; host or cells: Chinese hamster ovary (CHO) cells, membranes
T2 sequence (P21452 1-398): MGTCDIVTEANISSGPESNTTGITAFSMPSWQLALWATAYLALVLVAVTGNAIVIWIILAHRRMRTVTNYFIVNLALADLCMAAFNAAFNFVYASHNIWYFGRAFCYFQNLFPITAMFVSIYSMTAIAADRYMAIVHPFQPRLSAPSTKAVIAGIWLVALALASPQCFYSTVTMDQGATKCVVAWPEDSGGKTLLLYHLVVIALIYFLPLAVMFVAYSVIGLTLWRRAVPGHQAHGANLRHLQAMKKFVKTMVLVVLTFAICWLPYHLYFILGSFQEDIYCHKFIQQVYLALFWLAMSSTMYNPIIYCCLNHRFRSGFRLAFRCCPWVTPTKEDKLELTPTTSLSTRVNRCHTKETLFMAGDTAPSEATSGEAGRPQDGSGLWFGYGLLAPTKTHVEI
The assay is described as follows: Neurokinin receptor binding assay, NK2 ([3H]-Neurokinin A, CHO cell membranes). The following applies: competition with [3H]-Neurokinin A, Cheng and Prusoff. As for the experimental part:
as §1, §2, §3, §4

pKi: −log10 of the molar value. A value given as a limit tells only on which side of the number the result lay.

T1 sequence (P25103 whole entry): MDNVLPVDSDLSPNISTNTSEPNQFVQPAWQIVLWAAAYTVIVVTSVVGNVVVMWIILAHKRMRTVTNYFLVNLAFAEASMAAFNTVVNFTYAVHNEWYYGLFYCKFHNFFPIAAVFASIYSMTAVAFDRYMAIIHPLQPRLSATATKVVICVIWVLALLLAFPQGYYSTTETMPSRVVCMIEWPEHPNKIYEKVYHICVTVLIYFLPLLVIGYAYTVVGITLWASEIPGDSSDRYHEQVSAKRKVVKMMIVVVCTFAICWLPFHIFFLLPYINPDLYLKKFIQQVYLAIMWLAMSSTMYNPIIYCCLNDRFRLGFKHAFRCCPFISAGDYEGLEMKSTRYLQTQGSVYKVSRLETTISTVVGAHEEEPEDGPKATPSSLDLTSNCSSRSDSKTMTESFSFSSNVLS

On to `Cc1cc(C)cc(C(=O)N2CCN(C(=O)CO[C@H]3C[C@H]4CC[C@@H](C3)N4C(=O)OC(C)(C)C)[C@H](c3ccc(Cl)c(Cl)c3)C2)c1` [Example 56, (Endo)-1,1-dimethylethyl 3-[2-[2(R)-(3,4-dichlorophenyl)-4-(3,5-dimethylbenzoyl)-1-piperazinyl]-2-oxoethoxy]-8-aza[3.2.1]octane-8-carboxylate], for which the pKi (in general, the Ki on a negative log10 scale, so that one unit is a factor of ten) in assay [1] is < 7.00; in assay [2], 7.26.

With `CNC(=O)N[C@H](Cc1ccccc1)C(=O)N1C[C@@H]2C[C@H]1CN2CCC(=O)N1CCN(C(=O)c2cc(C)cc(C)c2)C[C@H]1c1ccc(Cl)c(Cl)c1` [35 (R = --CH3)], the figures for the pKi in assay [1] and in assay [2] were 8.20 and 9.03, respectively.

Take `Cc1cc(C)cc(C(=O)N2CCN(C(=O)CN[C@H]3C[C@H]4CC[C@@H](C3)N4C(=O)OC(C)(C)C)[C@H](c3ccc(Cl)c(Cl)c3)C2)c1` [Example 67]: the results for the pKi in assay [1] and in assay [2] were 6.80 and 8.03, respectively.

Consider `Cc1cc(C)cc(C(=O)N2CCN(C(=O)CCN3C[C@@H]4C[C@H]3CN4C(=O)[C@H](Cc3ccccc3)NC(=O)OC(C)(C)C)[C@H](c3ccc(Cl)c(Cl)c3)C2)c1`, for which the values for the pKi in assay [1] and in assay [2] were 7.35 and 7.85, respectively.

With `Cc1cc(C)cc(C(=O)N2CCN(C(=O)CCN3C[C@@H]4C[C@H]3CN4C(=O)[C@@H](N)Cc3cccs3)[C@H](c3ccc(Cl)c(Cl)c3)C2)c1`, the pKi in assay [1] is 7.80; in assay [2], 9.46.

As for `Cc1cc(C)cc(C(=O)N2CCN(C(=O)CO[C@@H]3C[C@@H]4C[C@H]3CN4Cc3ccsc3)[C@H](c3ccc(Cl)c(Cl)c3)C2)c1` [Example 50, 2(R)-(3,4-Dichlorophenyl)-4-(3,5-dimethylbenzoyl)-1-[[[exo-2-(3-thienylmethyl)-1(S),4(S)-2-azabicyclo[2.2.1]heptan-5-yl)oxy]acetyl]piperazine], the pKi is 8.74 in assay [1] and 8.59 in assay [2].

For `Cc1cc(C)cc(C(=O)N2CCN(C(=O)CCN3C[C@@H]4C[C@H]3CN4C(=NC#N)Nc3ccccc3)[C@H](c3ccc(Cl)c(Cl)c3)C2)c1` [Example 30], the values for the pKi in assay [1] and in assay [2] were 7.47 and 7.62, respectively.

Consider `CNC(=O)c1ccc(CN2[C@@H]3CC[C@H]2C[C@@H](OCC(=O)N2CCN(C(=O)c4cc(C)cc(C)c4)C[C@H]2c2ccc(Cl)c(Cl)c2)C3)cc1` [Example 58], for which the pKi was 7.72 in assay [1] and 7.24 in assay [2].

Turning to `CC(=O)Nc1ccc(CN2C[C@@H]3C[C@H]2C[C@H]3OCC(=O)N2CCN(C(=O)c3cc(C)cc(C)c3)C[C@H]2c2ccc(Cl)c(Cl)c2)cc1` [Example 51], the figures for the pKi in assay [1] and in assay [2] were 8.82 and 8.36, respectively.

For the origin of these results see US5968929A, “Piperazino derivatives as neurokinin antagonists” (Schering Corporation, priority 1997, dated 1999).
